# Laboratory results reported in ChEMBL document CHEMBL1201862, “PubChem BioAssay data set” (2004).
#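 Growth conditions: 96-well plates. Treatment: test compound, 48 hours, 5 concentrations. Analysis: linear interpolation between bracketing concentrations; unreached endpoints set to highest concentration. GI50 = concentration required for 50% inhibition of growth.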 Calls of active or inactive are those of the source. Cut-off read from the data, not from the text of the source: active = GI50 up to about 1.1 µM and inactive = higher.
# Experiments:
# Test in all cases: growth of human tumour cells (NCI), 48 h
# [1] = test system: HL-60
# [2] = test system: LXFL 529
# [3] = test system: UACC-62
# [4] = test system: LOX IMVI
# [5] = test system: DMS-114
# [6] = test system: NCI-H522
# [7] = test system: UO-31
# [8] = test system: RXF 393
# [9] = test system: SW-620
# [10] = test system: RPMI-8226
# [11] = test system: A549
# [12] = test system: CAKI-1
# [13] = test system: IGROV-1
# [14] = test system: OVCAR-5
# [15] = test system: SNB-19
# [16] = test system: SK-MEL-2
# [17] = test system: HT-29
# [18] = test system: NCI-H23
# [19] = test system: CCRF-CEM
# [20] = test system: HOP-92
# [21] = test system: M14
# [22] = test system: SK-MEL-5
# [23] = test system: SNB-78
# [24] = test system: SN12C
# [25] = test system: DMS-273
# [26] = test system: MOLT-4
# [27] = test system: SNB-75
# [28] = test system: UACC-257
# [29] = test system: ACHN
# [30] = test system: OVCAR-8
# [31] = test system: RXF 631
# [32] = test system: SK-MEL-28
# [33] = test system: 786-0
# [34] = test system: M19-MEL
# [35] = test system: KM-20L2
# [36] = test system: SF-539
# [37] = test system: A498
# [38] = test system: OVCAR-3
# [39] = test system: SF-295
# [40] = test system: Malme-3M
# [41] = test system: SK-OV-3
# [42] = test system: U-251
# [43] = test system: SF-268
# [44] = test system: EKVX
# [45] = test system: NCI-H226
# [46] = test system: TK-10
# [47] = test system: HCC 2998
# [48] = test system: COLO 205
# [49] = test system: KM12
# [50] = test system: HOP-18
# [51] = test system: HCT-116
# [52] = test system: HCT-15
# [53] = test system: DLD-1
# [54] = test system: OVCAR-4
# [55] = test system: K562
# [56] = test system: HOP-62
# [57] = test system: SR
# [58] = test system: NCI-H460
smiles,measurement,setting,value
CC12OC3(C)OC(=O)C(c4ccccc4)(O1)C3(C)O2 (stereo unspecified),GI50,[1],> 100 µM (inactive)
same,GI50,[2],> 100 µM (inactive)
same,GI50,[3],> 100 µM (inactive)
same,GI50,[4],> 100 µM (inactive)
same,GI50,[5],> 100 µM (inactive)
same,GI50,[6],> 100 µM (inactive)
same,GI50,[7],> 100 µM (inactive)
same,GI50,[8],> 100 µM (inactive)
same,GI50,[9],> 100 µM (inactive)
same,GI50,[10],> 100 µM (inactive)
same,GI50,[11],> 100 µM (inactive)
same,GI50,[12],> 100 µM (inactive)
same,GI50,[13],> 100 µM (inactive)
same,GI50,[14],> 100 µM (inactive)
same,GI50,[15],> 100 µM (inactive)
same,GI50,[16],> 100 µM (inactive)
same,GI50,[17],> 100 µM (inactive)
same,GI50,[18],> 100 µM (inactive)
same,GI50,[19],> 100 µM (inactive)
same,GI50,[20],> 100 µM (inactive)
same,GI50,[21],> 100 µM (inactive)
same,GI50,[22],> 100 µM (inactive)
same,GI50,[23],> 100 µM (inactive)
same,GI50,[24],> 100 µM (inactive)
same,GI50,[25],> 100 µM (inactive)
same,GI50,[26],> 100 µM (inactive)
same,GI50,[27],> 100 µM (inactive)
same,GI50,[28],> 100 µM (inactive)
same,GI50,[29],> 100 µM (inactive)
same,GI50,[30],> 100 µM (inactive)
same,GI50,[31],> 100 µM (inactive)
same,GI50,[32],> 100 µM (inactive)
same,GI50,[33],> 100 µM (inactive)
same,GI50,[34],> 100 µM (inactive)
same,GI50,[35],> 100 µM (inactive)
same,GI50,[36],> 100 µM (inactive)
same,GI50,[37],> 100 µM (inactive)
same,GI50,[38],> 100 µM (inactive)
same,GI50,[39],> 100 µM (inactive)
same,GI50,[40],> 100 µM (inactive)
same,GI50,[41],> 100 µM (inactive)
same,GI50,[42],> 100 µM (inactive)
same,GI50,[43],> 100 µM (inactive)
same,GI50,[44],> 100 µM (inactive)
same,GI50,[45],> 100 µM (inactive)
same,GI50,[46],> 100 µM (inactive)
same,GI50,[47],> 100 µM (inactive)
same,GI50,[48],> 100 µM (inactive)
same,GI50,[49],> 100 µM (inactive)
same,GI50,[50],> 100 µM (inactive)
same,GI50,[51],> 100 µM (inactive)
same,GI50,[52],> 100 µM
same,GI50,[53],> 100 µM (inactive)
same,GI50,[54],> 100 µM (inactive)
same,GI50,[55],> 100 µM (inactive)
C/C(=N\NS(=O)(=O)c1c(C)cc(C)cc1C)c1ccc[n+]([O-])n1,GI50,[1],6.12 µM (inactive)
same,GI50,[2],11.3 µM (inactive)
same,GI50,[3],16.4 µM (inactive)
same,GI50,[5],17.3 µM (inactive)
same,GI50,[6],6.61 µM (inactive)
same,GI50,[7],21.2 µM (inactive)
same,GI50,[9],8.05 µM (inactive)
same,GI50,[10],11.7 µM (inactive)
same,GI50,[11],65.2 µM (inactive)
same,GI50,[12],4.78 µM (inactive)
same,GI50,[13],31.6 µM (inactive)
same,GI50,[14],26.8 µM (inactive)
same,GI50,[15],> 100 µM (inactive)
same,GI50,[17],18.3 µM (inactive)
same,GI50,[56],> 100 µM (inactive)
same,GI50,[18],15.5 µM (inactive)
same,GI50,[19],3.96 µM (inactive)
same,GI50,[20],9.95 µM (inactive)
same,GI50,[21],7.64 µM (inactive)
same,GI50,[22],41.9 µM (inactive)
same,GI50,[23],14.3 µM (inactive)
same,GI50,[24],14.9 µM (inactive)
same,GI50,[25],16.2 µM (inactive)
same,GI50,[26],14.5 µM (inactive)
same,GI50,[27],16.9 µM (inactive)
same,GI50,[28],10.3 µM (inactive)
same,GI50,[29],14.2 µM (inactive)
same,GI50,[30],19.6 µM (inactive)
same,GI50,[31],27.5 µM (inactive)
same,GI50,[32],13.3 µM (inactive)
same,GI50,[33],14.3 µM (inactive)
same,GI50,[34],13.9 µM (inactive)
same,GI50,[35],22.9 µM (inactive)
same,GI50,[36],13.6 µM (inactive)
same,GI50,[37],29.5 µM (inactive)
same,GI50,[38],12.6 µM (inactive)
same,GI50,[39],62.2 µM (inactive)
same,GI50,[57],22.3 µM (inactive)
same,GI50,[41],> 100 µM (inactive)
same,GI50,[42],41.7 µM (inactive)
same,GI50,[43],20.1 µM (inactive)
same,GI50,[44],12.4 µM (inactive)
same,GI50,[47],33 µM (inactive)
same,GI50,[49],38.5 µM (inactive)
same,GI50,[50],19.2 µM (inactive)
same,GI50,[51],13.1 µM (inactive)
same,GI50,[52],14.7 µM
same,GI50,[53],7.16 µM (inactive)
same,GI50,[58],30.7 µM (inactive)
same,GI50,[54],12.8 µM (inactive)
same,GI50,[55],4.44 µM (inactive)
